Here are results for 12 molecules from ChEMBL document CHEMBL1132744, “Synthesis and antiproliferative activity of some benzimidazole-4,7-dione derivatives” (Bioorg Med Chem Lett, 2000).

A short description of data set [1]: Antiproliferative activity of compound was evaluated on SupT1 cells from human non-Hodgkin lymphoma. It is filed as functional. Particulars: SUP-T1, read-out: ID50 (the source's name).
In another data set the test system is MCF7. Description: Antiproliferative activity of compound was evaluated on MCF-7 cells from human breast adenocarcinoma. It counts as functional. As to conditions: read-out: ID50 (the source's name).
Data set [2] can be described thus: Antiproliferative activity of compound was evaluated on Molt3 cells from human lymphoblastic leukemia. It counts as functional. Particulars: MOLT-3, read-out: ID50 (the source's name).
A short description of data set [3]: The compound was evaluated for cytotoxicity against VERO cells using Dye test at a concentration 90 uM. It counts as cell-based. As to conditions: chlorocebus sabaeus, read-out: Cellular growth.
For data set [4], the system named is Vero. In words: The compound was evaluated for cytotoxicity against VERO cells using Lowry's test at a concentration 90 uM. As to conditions: chlorocebus sabaeus. It is filed as cell-based.
Data set [5] has as its system Vero. Description: The compound was evaluated for cytotoxicity against VERO cells using Lowry's test at a concentration 0.7 uM. It is filed as cell-based. As to conditions: chlorocebus sabaeus.
A short description of data set [6]: The compound was evaluated for cytotoxicity against VERO cells using Dye test at a concentration 0.7 uM. It counts as cell-based. As to conditions: chlorocebus sabaeus, read-out: Cellular growth.
Data set [7] can be described thus: The compound was evaluated for cytotoxicity against VERO cells using Dye test at a concentration 11.2 uM. It counts as cell-based. As to conditions: chlorocebus sabaeus, read-out: Cellular growth.
The subject of data set [8] is Vero. In words: The compound was evaluated for cytotoxicity against VERO cells using Lowry's test at a concentration 11.2 uM. It counts as cell-based. As to conditions: chlorocebus sabaeus.

Consider `CSc1nc2c([nH]1)C(=O)C=C(Br)C2=O`, for which the IC50 came out at 5.03 µM in data set [1], 62.8 µM in the data set on MCF7 and 32.1 µM in data set [2].

On to `O=C1C(Br)=CC(=O)c2[nH]c(-c3ccccn3)nc21`, for which the IC50 in [1] was 5.57 µM; in the data set on MCF7 it was more than 90 µM; in data set [2] it was 7.52 µM.

For the molecule `CSc1nc2c([nH]1)C(=O)C(Br)=C(Br)C2=O`, the IC50 in [1] was determined as 6.26 µM; with MCF7 it was 40.3 µM; in [2], 12 µM.

With `COC1=CC(=O)c2[nH]c(SC)nc2C1=O`, the figures for the IC50 (in data set [1]; in the data set with MCF7; in [2]) were 5.07 µM, 36 µM and 20.8 µM, respectively.

On to `CSc1nc2c([nH]1)C(=O)/C(=N/CCCl)C=C2O`, for which the IC50 in [1] was 15.3 µM; with MCF7 it was more than 90 µM; in data set [2] it was 30.6 µM.

With `COC1=CC(=O)c2[nH]c(-c3ccccn3)nc2C1=O`, the IC50 in [1] was found to be 2.57 µM; with MCF7, 26.4 µM; in data set [2], 2.63 µM. The viability at 90 µM in data set [3] turned out to be 16.4%. Further, the Protein content in the data set with Vero [4] was 16.2%; in the data set on Vero [5], 97.2%; with Vero [8] it was 81.3%. Further, in data set [6], the viability at 0.7 µM came to 114%. Further, the viability at 11.2 µM in [7] is 71.2%.

Take `NC1=CC(=O)c2[nH]c(-c3ccccn3)nc2C1=O`: the IC50 was 29.3 µM in data set [1], more than 90 µM in the data set on MCF7 and 39.7 µM in data set [2].

Regarding `CN(C)C1=CC(=O)c2[nH]c(-c3ccccn3)nc2C1=O`, the results for the IC50 (in [1]; in the data set on MCF7; in data set [2]) were 17.4 µM, more than 90 µM and 22.4 µM, respectively.

Take `CSc1nc2c([nH]1)C(=O)C=C(N(C)C)C2=O`: the results for the IC50 (in data set [1]; in the data set with MCF7; in [2]) were 38 µM, more than 90 µM and 18.3 µM, respectively.

Consider `CSc1nc2c([nH]1)C(=O)C=CC2=O`, for which the IC50 came to 2.87 µM in data set [1], 62.6 µM in the data set on MCF7 and 1.32 µM in [2]. Further, the viability at 90 µM in [3] worked out at 73.6%. Also, the figures for the Protein content in the data set with Vero [4], with Vero [5] and in the data set on Vero [8] were 68.9%, 102.9% and 86.4%, respectively. Further, in [6], the viability at 0.7 µM worked out at 99.3%. Besides, in [7], the viability at 11.2 µM amounted to 101%.

With `CSc1nc2c([nH]1)C(=O)C(=N)C=C2O`, the IC50 in data set [1] was 10.8 µM; in the data set with MCF7, more than 90 µM; in data set [2], 60.4 µM.

On to `CO[C@@]12[C@H](COC(N)=O)C3=C(C(=O)C(C)=C(N)C3=O)N1C[C@@H]1N[C@@H]12` [MITOMYCIN], for which the IC50 is less than 0.7 µM in [1], 42.9 µM with MCF7 and 2.66 µM in data set [2].
